Results reported in patent publication US20030013688A1, “Synergistic combination of pravastatin and aspirin and method” (priority 2001, published 2003).

Tested on: any cardiac event, including ischemic stroke, or death
Test: Bayesian hierarchical (Cox proportional hazards, Models 1 and 2) analysis of five secondary prevention studies (CARE, LIPID, PLAC I, PLAC II, REGRESS) for synergy between pravastatin and aspirin
Assay type: in vivo, human
Conditions: for posterior mean of the coefficient γT: Model 1, logarithmic scale, relative to placebo (γplacebo=0)
Method: In this study 40 mg pravastatin and 81 mg aspirin and higher were employed.
The primary endpoint was (i) any cardiac event, including ischemic stroke, or death. Secondary endpoints were individual components of the primary endpoint: (ii) any cardiac event, excluding stroke, (iii) any myocardial infarction, (iv) ischemic stroke, and (v) death. Analyses of these secondary endpoints as opposed to the primary endpoint are subject to greater uncertainty because the numbers of events are smaller. Therefore, conclusions for the secondary endpoints are likely to be less compelling.
The five studies available for addressing the synergy between pravastatin and aspirin for secondary prevention are listed and described in Table 1. Patients in all five studies were randomized to pravastatin vs placebo. All patients in all five studies are included in the primary analysis.
These may be due to random variability or to differences in patient populations. To take these differences into account, the role of patient characteristics was modeled, namely, the following covariates were considered: age, gender, smoking status, existence of coronary artery disease, and baseline values of LDL and HDL cholesterols, triglycerides, and diastolic and systolic blood pressures. In addition, the studies were conducted under different circumstances and by different investigators and even in different countries. Therefore, there may be additional study-specific differences that cannot be explained by differences in measured patient covariates. To allow for the possibility that treatment effects depend on study even after accounting for patient characteristics, Bayesian hierarchical modeling was used in which the study is one level of experimental unit and patient-within-study is a second level.
A brief introduction to Bayesian hierarchical modeling and a description of standard Bayesian hierarchical Cox proportional hazards model (Model 1) are set out below. An extension of the standard model that allows for treatment-specific time-varying hazards (Model 2) is also described. In addition, the sensitivity of the conclusions to the prior distribution of the parameter that regulates the extent of pooling of the various studies is addressed.
Model 1: Bayesian Hierarchical Analysis Using Cox Proportional Hazards Model
The Cox proportional hazards model takes hazard H to be of the form
where Z is the set of patient-specific covariates (listed above), β is the vector of regression coefficients and λ0(t) is the baseline hazard function. Treatment and study are considered separately from covariates Z, as follows: […]
Assessing the probability of synergy is straightforward in Model 1 when using Markov chain Monte Carlo (MCMC) methods. […] During each iteration of MCMC, this synergy condition is assessed. […]

Structure (SMILES) | posterior mean of the coefficient γT (primary endpoint (All events)) | performance in comparison with placebo alone (primary endpoint (All events), Models 1 and 2) | estimated event rate (hazard) compared among treatment arms (stroke, Model 2, year 1)
CC[C@H](C)C(=O)O[C@H]1C[C@H](O)C=C2C=C[C@H](C)[C@H](CC[C@@H](O)C[C@@H](O)CC(=O)O)[C@H]21 [pravastatin] | −0.0985 | – | –
CC(=O)Oc1ccccc1C(=O)O [aspirin, acetylsalicylic acid] | −0.0022 | essentially the same | lowest estimated event rate
